Measured values from patent US20030095962A1, “Chimeric cell-surface receptors that undergo antigen-induced association” (priority 1997, published 2003).

Assays:
[1] = test system: Ba/HEL cells (Ba/F3 cells expressing VH/VL-EpoR chimeric receptors); test: Antigen-dependent growth of Ba/HEL cell clones (viable cell count, trypan blue); type: cell-based, mouse
Procedure: FIG. 3 is a graph showing the relation between the concentrations of antigen n a culture medium and cell growth rates. Clone G8 was obtained by transforming Ba/F3 cells with the VH/VL EpoR vector constructs and growing in the presence of antigen. In this experiment, separate cultures of Clone G8 was cultured with different constant amounts of the antigen HEL over a 5-day period. Cell proliferation was dose-dependent, and was inducible up to at least about 5 times the rate by including antigen in the culture medium.
The clones of Ba/HEL cells were cultured with various concentrations of HEL to measure the change of the cell number over time. HEL was added in the concentrations of 0, 0.005, 0.05 and 0.5 μg/ml to the RPMI 1640 medium containing 10% FBS, seeded Ba/HEL clones with the initial concentration of 5×10^3 ml, and measured the change in the number of viable cells over time by the cell count method using trypan blue.
Cell growth was conspicuously accelerated with as low as 5 ng/ml antigen. This concentration agrees with the detectable antigen concentration in the immunoassay based on VH/VL association of HyHEL-10 Fv (Ueda et al., Nature Biotech, 14, 1714-1718, 1996). Accordingly, antigen concentration can be measured, that is, immunoassay can be performed using the level of growth of this cell as an index.

[2] = test system: Ba/F3 cells; test: Growth of Ba/F3 cells without expression vectors in HEL-containing medium without IL-3; type: cell-based, mouse; settings: RPMI 1640, 10 μg/ml HEL, 10% FBS, no expression vectors introduced
Procedure: Two plasmids, PME-VHER and pME-VLER, produced in Example 1, were introduced into the cell line Ba/F3 which is derived from the interleukin-3 (IL-3) dependent mouse pro-B cells, by using electroporation method. The Ba/F3 cells (2×10^6) in the logarithmic growth period and 5 μg each of above plasmid DNAs linearized with the restriction enzyme KpnI were suspended in 100 μl HBS (Hanks' Buffered Saline: Nissui Pharmacy). Rectangular pulses, 500 volts/150 μsec, were applied 10 times using a gene introduction electric pulse generator (electrodes of 4 mm intervals, Bio-Rad). The cells was kept at room temperatures for five minutes, diluted in 4 ml RPMI 1640 culture media (Nissui Pharmacy) containing 400 μg/ml G418 (Sigma), 8 ng/ml mouse IL-3 (Genzyme) and 10% fetal bovine serum (FBS, Gibco), added into 24-well plates 1 ml each, and cultured for two weeks at 37° C. in the 5% CO2 humidified atmosphere. The resultant colonies were mixed and cultured for another three days in the same media 100 μl cell suspensions were diluted in 2 ml RPMI 1640 medium containing 10 μg/ml hen egg lysozyme (HEL, Seikagaku) and 10% FBS (Gibco) and were subcultured. The Ba/F3 cell line is known to be released from IL-3 dependency by the ectopic expression of the EPO receptor when EPO is added to the medium. […]

hen egg lysozyme [HEL]
Cell growth in relation to the HEL concentration in the medium ([1]; Ba/HEL clone G8, similar results for all clones inspected): cell growth depends on the concentration of HEL | Antigen concentration at which cell growth was conspicuously accelerated ([1]; Ba/HEL clones, RPMI 1640 with 10% FBS, HEL 0, 0.005, 0.05 and 0.5 μg/ml): ≤ 5 ng/mL | Cell proliferation inducible by including antigen in the culture medium ([1]; Clone G8, different constant amounts of HEL over a 5-day period): at least 5 times the rate | Growth of cells in HEL-containing medium [2]: did not grow
